Test system: c-myc in 22RV-1 cells
Assay: Human c-myc ELISA assay
Assay type: cell-based
Details: Homo sapiens; for Emax: 22Rv1, 18 h, read-out: Degradation of BRD4: Maximum inhibition (%) c-Myc ELISA in 22RV1 cells; for DC50: 22Rv1, read-out: Degradation of BRD4: DC50 (uM) c-Myc ELISA in 22RV1 cells
How it was run: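 c-myc levels measured by ELISA in RIPA lysates of 22RV-1 cells, calibrated with a 333-0 pg/ml standard curve. Lysates came from cells exposed for 18 h to an 8-point, 1:3 dose series starting at 300 nM or 1 μM final in 0.1% DMSO. Suppression potency given as DC50.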

## Cc1ncsc1-c1ccc([C@H](C)NC(=O)[C@@H]2C[C@@H](O)CN2C(=O)[C@@H](NC(=O)CN2CCC(N3CCN(C(=O)C[C@@H]4N=C(c5ccc(Cl)cc5)c5c(sc(C)c5C)-n5c(C)nnc54)CC3)CC2)C(C)(C)C)cc1 [Example 335]
  Emax: 97%
  DC50: < 0.01 µM

## Cc1ncsc1-c1ccc([C@H](C)NC(=O)[C@@H]2C[C@@H](O)CN2C(=O)[C@@H](C(C)C)n2cc(-c3ccc(N4CC(NC(=O)C[C@@H]5N=C(c6ccc(Cl)cc6)c6c(sc(C)c6C)-n6c(C)nnc65)C4)nc3)cn2)cc1 [Example 255]
  Emax: 35.5%
  DC50: > 1 µM

## Cc1ncsc1-c1ccc([C@H](C)NC(=O)[C@@H]2C[C@@H](O)CN2C(=O)[C@@H](C(C)C)n2cc(-c3ccnc(N4CC(NC(=O)C[C@@H]5N=C(c6ccc(Cl)cc6)c6c(sc(C)c6C)-n6c(C)nnc65)C4)c3)cn2)cc1 [Example 247]
  Emax: 24.1%
  DC50: > 1 µM

## Cc1ncsc1-c1ccc([C@H](C)NC(=O)[C@@H]2C[C@@H](O)CN2C(=O)[C@@H](NC(=O)c2ccc(OCCCNC(=O)C[C@@H]3N=C(c4ccc(Cl)cc4)c4c(sc(C)c4C)-n4c(C)nnc43)cn2)C(C)(C)C)cc1 [Example 114, 5-(3-{2-[(9S)-7-(4-chlorophenyl)-4,5,13-trimethyl-3-thia-1,8,11,12-tetraazatricyclo[8.3.0.0^2,^6]trideca-2(6),4,7,10,12-pentaen-9-yl]acetamido}propoxy)-N-[(2S)-1-[(2S,4R)-4-hydroxy-2-{[(1S)-1-[4-(4-methyl-1,3-thiazol-5-yl)phenyl]ethyl]carbamoyl}pyrrolidin-1-yl]-3,3-dimethyl-1-oxobutan-2-yl]pyridine-2-carboxamide]
  Emax: 99.5%
  DC50: < 0.01 µM

## Cc1ncsc1-c1ccc([C@H](C)NC(=O)[C@@H]2C[C@@H](O)CN2C(=O)[C@@H](NC(=O)c2cc3cc(O[C@@H](C)CNC(=O)C[C@@H]4N=C(c5ccc(Cl)cc5)c5c(sc(C)c5C)-n5c(C)nnc54)ccc3o2)C(C)(C)C)cc1 [Example 205, (2S,4R)-1-[(2S)-2-[(5-{[(2S)-1-{2-[(9S)-7-(4-chlorophenyl)-4,5,13-trimethyl-3-thia-1,8,11,12-tetraazatricyclo[8.3.0.0^2,^6]trideca-2(6),4,7,10,12-pentaen-9-yl]acetamido}propan-2-yl]oxy}-1-benzofuran-2-yl)formamido]-3,3-dimethylbutanoyl]-4-hydroxy-N-[(1S)-1-[4-(4-methyl-1,3-thiazol-5-yl)phenyl]ethyl]pyrrolidine-2-carboxamide]
  Emax: 91%
  DC50: < 0.01 µM

## Cc1ncsc1-c1ccc([C@H](C)NC(=O)[C@@H]2C[C@@H](O)CN2C(=O)[C@H](C(C)C)n2cc(-c3cc(F)cc(O[C@H]4C[C@H](NC(=O)C[C@@H]5N=C(c6ccc(Cl)cc6)c6c(sc(C)c6C)-n6c(C)nnc65)C4)c3)cn2)cc1 [Example 254]
  Emax: 95.4%
  DC50: < 0.01 µM

## Cc1ncsc1-c1ccc(CNC(=O)[C@@H]2C[C@@H](O)CN2C(=O)[C@@H](NC(=O)COCCCOCCCOc2ccc(C(C)(C)NC(=O)C[C@@H]3N=C(c4ccc(Cl)cc4)c4c(sc(C)c4C)-n4c(C)nnc43)cc2)C(C)(C)C)cc1 [Example 37]
  Emax: 96%
  DC50: 0.01 to 0.1 µM

## Cc1ncsc1-c1ccc([C@H](C)NC(=O)[C@@H]2C[C@@H](OC(=O)CCCN)CN2C(=O)[C@@H](NC(=O)c2cc3cc(O[C@H]4C[C@@H](NC(=O)C[C@@H]5N=C(c6ccc(Cl)cc6)c6c(sc(C)c6C)-n6c(C)nnc65)C4)ccc3o2)C(C)(C)C)cc1 [Example 344]
  Emax: 95.9%
  DC50: 0.01 to 0.1 µM

## Cc1ncsc1-c1ccc([C@H](C)NC(=O)[C@@H]2C[C@@H](O)CN2C(=O)[C@@H](NC(=O)CCc2cc(F)cc(O[C@H](C)CNC(=O)C[C@@H]3N=C(c4ccc(Cl)cc4)c4c(sc(C)c4C)-n4c(C)nnc43)c2)C(C)(C)C)cc1 [Example 203]
  Emax: 92%
  DC50: < 0.01 µM

## Cc1ncsc1-c1ccc([C@H](C)NC(=O)[C@@H]2C[C@@H](O)CN2C(=O)[C@@H](NC(=O)COCCOCCCOc2ccc([C@@H](C)NC(=O)C[C@@H]3N=C(c4ccc(Cl)cc4)c4c(sc(C)c4C)-n4c(C)nnc43)cc2)C(C)(C)C)cc1 [Example 30]
  Emax: 96%
  DC50: 0.01 to 0.1 µM

## Cc1ncsc1-c1ccc(CNC(=O)[C@@H]2C[C@@H](O)CN2C(=O)[C@H](C(C)C)n2cc(-c3ccnc(O[C@@H](C)CNC(=O)C[C@@H]4N=C(c5ccc(Cl)cc5)c5c(sc(C)c5C)-n5c(C)nnc54)c3)cn2)cc1 [Example 180]
  Emax: 98.5%
  DC50: 0.01 to 0.1 µM

## Cc1ncsc1-c1ccc(CNC(=O)[C@@H]2C[C@@H](O)CN2C(=O)[C@@H](C(C)C)n2cc(-c3cccc(O[C@H]4C[C@H](NC(=O)C[C@@H]5N=C(c6ccc(Cl)cc6)c6c(sc(C)c6C)-n6c(C)nnc65)C4)c3)cn2)cc1 [Example 216]
  Emax: 14.4%
  DC50: > 1 µM

## Cc1cc(C(C(=O)N2C[C@H](O)C[C@H]2C(=O)NCc2ccc(Cl)cc2OCCOCCOCCOCCNC(=O)C[C@@H]2N=C(c3ccc(Cl)cc3)c3c(sc(C)c3C)-n3c(C)nnc32)C(C)C)on1 (some centres unmarked) [Example 361]
  Emax: 100%
  DC50: 0.01 to 0.1 µM

## Cc1ncsc1-c1ccc([C@H](C)NC(=O)[C@@H]2C[C@@H](O)CN2C(=O)[C@@H](C(C)C)n2cc(-c3cccc(O[C@H]4C[C@H](NC(=O)C[C@@H]5N=C(c6ccc(Cl)cc6)c6c(sc(C)c6C)-n6c(C)nnc65)C4)c3)cn2)cc1 [Example 244]
  Emax: 95.5%
  DC50: 0.01 to 0.1 µM

## Cc1ncsc1-c1ccc(CNC(=O)[C@@H]2C[C@@H](O)CN2C(=O)[C@@H](C(C)C)n2cc(-c3ccnc(O[C@H]4C[C@@H](NC(=O)C[C@@H]5N=C(c6ccc(Cl)cc6)c6c(sc(C)c6C)-n6c(C)nnc65)C4)c3)cn2)cc1 [Example 177, (2S,4R)-4-hydroxy-N-{[4-(4-methyl-1,3-thiazol-5-yl)phenyl]methyl}-1-[(2R)-3-methyl-2-(4-{2-[(1,3-cis)-3-{2-[(9S)-7-(4-chlorophenyl)-4,5,13-trimethyl-3-thia-1,8,11,12-tetraazatricyclo[8.3.0.0^2,^6]trideca-2(6),4,7,10,12-pentaen-9-yl]acetamido}cyclobutoxy]pyridin-4-yl}-1H-pyrazol-1-yl)butanoyl]pyrrolidine-2-carboxamide]
  Emax: 39.3%
  DC50: > 1 µM

## Cc1ncsc1-c1ccc(CNC(=O)[C@@H]2C[C@@H](O)CN2C(=O)[C@@H](c2cc(OCCC(F)(F)CCNC(=O)C[C@@H]3N=C(c4ccc(Cl)cc4)c4c(sc(C)c4C)-n4c(C)nnc43)no2)C(C)C)cc1 [Example 297, (2S,4R)-1-[(2R)-2-{3-[(5-{2-[(9S)-7-(4-chlorophenyl)-4,5,13-trimethyl-3-thia-1,8,11,12-tetraazatricyclo[8.3.0.0^2,^6]trideca-2(6),4,7,10,12-pentaen-9-yl]acetamido}-3,3-difluoropentyl)oxy]-1,2-oxazol-5-yl}-3-methylbutanoyl]-4-hydroxy-N-{[4-(4-methyl-1,3-thiazol-5-yl)phenyl]methyl}pyrrolidine-2-carboxamide]
  Emax: 97%
  DC50: < 0.01 µM

## Cc1sc2c(c1C)C(c1ccc(Cl)cc1)=NC(CC(=O)N[C@H]1C[C@H](Oc3ccc(CC(=O)N[C@H](C(=O)N4C[C@H](O)C[C@H]4C(=O)N[C@@H](C)c4ccc(C#N)cc4)C(C)(C)C)cc3)C1)c1nnc(C)n1-2 (some centres unmarked) [Example 279]
  Emax: 65.4%
  DC50: 0.1 to 1 µM

## Cc1ncoc1-c1ccc([C@H](C)NC(=O)[C@@H]2C[C@@H](O)CN2C(=O)[C@@H](NC(=O)Cc2ccc(O[C@H]3C[C@H](NC(=O)C[C@@H]4N=C(c5ccc(Cl)cc5)c5c(sc(C)c5C)-n5c(C)nnc54)C3)cc2)C(C)(C)C)cc1 [Example 274]
  Emax: 95.4%
  DC50: < 0.01 µM

## Cc1ncsc1-c1ccc(CNC(=O)[C@@H]2C[C@@H](O)CN2C(=O)[C@@H](NC(=O)COCCCOCCCCOCCCOc2ccc(NC(=O)C[C@@H]3N=C(c4ccc(Cl)cc4)c4c(sc(C)c4C)-n4c(C)nnc43)cc2)C(C)(C)C)cc1 [Example 13]
  Emax: 100%
  DC50: 0.01 to 0.1 µM

## Cc1ncsc1-c1ccc(CNC(=O)[C@@H]2C[C@@H](O)CN2C(=O)[C@@H](NC(=O)COCCOCCOCCNC(=O)C[C@H]2N=C(c3ccc(Cl)cc3)c3c(sc(C)c3C)-n3c(C)nnc32)C(C)(C)C)cc1 [Example 104]
  Emax: < 5%
  DC50: > 1 µM

## CCc1ccc(C2=N[C@@H](CC(=O)Nc3ccc(OCCCOCCCOCC(=O)N[C@H](C(=O)N4C[C@H](O)C[C@H]4C(=O)NCc4ccc(-c5scnc5C)cc4)C(C)(C)C)cc3)c3nnc(C)n3-c3sc(C)c(C)c32)cc1 [Example 64, (2S,4R)-1-[(2S)-2-(2-{3-[3-(4-{2-[(9S)-7-(4-ethylphenyl)-4,5,13-trimethyl-3-thia-1,8,11,12-tetraazatricyclo[8.3.0.0^2,^6]trideca-2(6),4,7,10,12-pentaen-9-yl]acetamido}phenoxy)propoxy]propoxy}acetamido)-3,3-dimethylbutanoyl]-4-hydroxy-N-{[4-(4-methyl-1,3-thiazol-5-yl)phenyl]methyl}pyrrolidine-2-carboxamide]
  Emax: 96.5%
  DC50: 0.01 to 0.1 µM

## Cc1ncsc1-c1ccc([C@H](C)NC(=O)[C@@H]2C[C@@H](O)CN2C(=O)[C@@H](NC(=O)[C@H]2CC[C@@H](COCCCNC(=O)C[C@@H]3N=C(c4ccc(Cl)cc4)c4c(sc(C)c4C)-n4c(C)nnc43)O2)C(C)(C)C)cc1 [Example 187]
  Emax: 98.5%
  DC50: 0.01 to 0.1 µM
